{"source": "ChEMBL document CHEMBL1781971", "about": "“Discovery of 5-(arenethynyl) hetero-monocyclic derivatives as potent inhibitors of BCR-ABL including the T315I gatekeeper mutant” (Bioorg Med Chem Lett, 2011)", "key": {"[1]": {"assay": "Half life in rat at 15 mg/kg, po", "format": "ADME, organism-based", "set-up": "dose 15 mg/kg, route oral", "conditions": "in vivo"}, "Rattus norvegicus [2]": {"tested_on": "Rattus norvegicus", "assay": "AUC in rat at 15 mg/kg, po", "format": "ADME, organism-based, Plasma", "set-up": "dose 15 mg/kg, route oral", "conditions": "in vivo"}, "[3]": {"assay": "Oral bioavailability in rat at 15 mg/kg", "format": "ADME, organism-based", "conditions": "in vivo"}, "[4]": {"assay": "Plasma concentration in mouse after 6 hrs at 30 mg/kg, po", "format": "ADME, organism-based", "set-up": "dose 30 mg/kg, route oral"}, "[5]": {"assay": "Cmax in rat at 5 mg/kg, iv", "format": "ADME, organism-based", "set-up": "dose 5 mg/kg, route intravenous", "conditions": "in vivo"}, "[6]": {"assay": "Half life in rat at 5 mg/kg, iv", "format": "ADME, organism-based", "set-up": "dose 5 mg/kg, route intravenous", "conditions": "in vivo"}, "Rattus norvegicus [7]": {"tested_on": "Rattus norvegicus", "assay": "AUC in rat at 5 mg/kg, iv", "format": "ADME, organism-based, Plasma", "set-up": "dose 5 mg/kg, route intravenous", "conditions": "in vivo"}, "[8]": {"assay": "Volume of distribution in rat at 5 mg/kg, iv", "format": "ADME, organism-based", "set-up": "dose 5 mg/kg, route intravenous", "conditions": "in vivo"}, "[9]": {"assay": "Clearance in rat at 5 mg/kg, iv", "format": "ADME, organism-based", "set-up": "dose 5 mg/kg, route intravenous", "conditions": "in vivo"}, "[10]": {"assay": "Cmax in rat at 15 mg/kg, po", "format": "ADME, organism-based", "set-up": "dose 15 mg/kg, route oral", "conditions": "in vivo"}, "[11]": {"target": "Tyrosine-protein kinase ABL1 (Homo sapiens, UniProt P00519)"}, "[12]": {"target": "Tyrosine-protein kinase ABL1 (Homo sapiens, UniProt P00519, T315I)"}, "cells [13]": {"assay": "cells", "conditions": "Mus musculus, BaF3", "description": "Antiproliferative activity against mouse BA/F3 cells expressing wild type BCR-ABL"}, "cells [14]": {"assay": "cells", "conditions": "Mus musculus, BaF3", "remark": "listed apart in the source"}, "cells [15]": {"assay": "cells", "conditions": "Mus musculus, BaF3", "remark": "listed apart in the source", "description": "Antiproliferative activity against BCR-ABL-negative parental mouse BA/F3 cells"}}}
{"smiles": "Cc1ccc(C(=O)Nc2ccc(CN3CCN(CCO)CC3)c(C(F)(F)F)c2)cc1C#Cc1cnc(C(N)=O)n1C", "values": [{"measurement": "half-life", "setting": "[1]", "value": 6.3, "unit": "h"}, {"measurement": "AUC", "setting": "Rattus norvegicus [2]", "value": 962, "unit": "h/ng/mL"}, {"measurement": "bioavailability", "setting": "[3]", "value": 14, "unit": "%"}, {"measurement": "concentration at 6 h", "setting": "[4]", "value": 333, "unit": "ng/mL"}, {"measurement": "Cmax", "setting": "[5]", "value": 598, "unit": "ng/mL"}, {"measurement": "half-life", "setting": "[6]", "value": 3.5, "unit": "h"}, {"measurement": "AUC", "setting": "Rattus norvegicus [7]", "value": 2320, "unit": "h/ng/mL"}, {"measurement": "Vd", "setting": "[8]", "value": 11, "unit": "L/kg"}, {"measurement": "clearance", "setting": "[9]", "value": 35.8, "unit": "mL/min/kg"}, {"measurement": "Cmax", "setting": "[10]", "value": 61.4, "unit": "ng/mL"}, {"measurement": "IC50", "setting": "[11]", "value": 0.0036, "unit": "µM"}, {"measurement": "IC50", "setting": "[12]", "value": 0.036, "unit": "µM"}, {"measurement": "IC50", "setting": "cells [13]", "value": 0.00061, "unit": "µM"}, {"measurement": "IC50", "setting": "cells [14]", "value": 0.0058, "unit": "µM"}, {"measurement": "IC50", "setting": "cells [15]", "value": 1.32, "unit": "µM"}]}
{"smiles": "Cc1ccc(C(=O)Nc2ccc(CN3CCN(C)CC3)c(C(F)(F)F)c2)cc1C#Cc1cccnc1", "values": [{"measurement": "IC50", "setting": "[11]", "value": 0.0403, "unit": "µM"}, {"measurement": "IC50", "setting": "[12]", "value": 0.123, "unit": "µM"}, {"measurement": "IC50", "setting": "cells [13]", "value": 0.0041, "unit": "µM"}, {"measurement": "IC50", "setting": "cells [14]", "value": 0.0455, "unit": "µM"}, {"measurement": "IC50", "setting": "cells [15]", "value": 2.04, "unit": "µM"}]}
{"smiles": "Cc1ccc(C(=O)Nc2ccc(CN3CCN(C)CC3)c(C(F)(F)F)c2)cc1C#Cc1cncnc1", "values": [{"measurement": "half-life", "setting": "[1]", "value": 10, "unit": "h"}, {"measurement": "AUC", "setting": "Rattus norvegicus [2]", "value": 13559, "unit": "h/ng/mL"}, {"measurement": "bioavailability", "setting": "[3]", "value": 85, "unit": "%"}, {"measurement": "concentration at 6 h", "setting": "[4]", "value": 771, "unit": "ng/mL"}, {"measurement": "Cmax", "setting": "[5]", "value": 822, "unit": "ng/mL"}, {"measurement": "half-life", "setting": "[6]", "value": 6.2, "unit": "h"}, {"measurement": "AUC", "setting": "Rattus norvegicus [7]", "value": 5308, "unit": "h/ng/mL"}, {"measurement": "Vd", "setting": "[8]", "value": 8.5, "unit": "L/kg"}, {"measurement": "clearance", "setting": "[9]", "value": 15.7, "unit": "mL/min/kg"}, {"measurement": "Cmax", "setting": "[10]", "value": 900, "unit": "ng/mL"}, {"measurement": "IC50", "setting": "[11]", "value": 0.0627, "unit": "µM"}, {"measurement": "IC50", "setting": "[12]", "value": 0.435, "unit": "µM"}, {"measurement": "IC50", "setting": "cells [13]", "value": 0.0031, "unit": "µM"}, {"measurement": "IC50", "setting": "cells [14]", "value": 0.065, "unit": "µM"}, {"measurement": "IC50", "setting": "cells [15]", "value": 2.82, "unit": "µM"}]}
{"smiles": "CC(=O)Nc1ccc(C#Cc2cc(C(=O)Nc3ccc(CN4CCN(C)CC4)c(C(F)(F)F)c3)ccc2C)cn1", "values": [{"measurement": "IC50", "setting": "[11]", "value": 0.018, "unit": "µM"}, {"measurement": "IC50", "setting": "[12]", "value": 0.121, "unit": "µM"}, {"measurement": "IC50", "setting": "cells [13]", "value": 0.0022, "unit": "µM"}, {"measurement": "IC50", "setting": "cells [14]", "value": 0.0096, "unit": "µM"}, {"measurement": "IC50", "setting": "cells [15]", "value": 1.79, "unit": "µM"}]}
{"smiles": "CCC(=O)Nc1ccc(C#Cc2cc(C(=O)Nc3ccc(CN4CCN(C)CC4)c(C(F)(F)F)c3)ccc2C)cn1", "values": [{"measurement": "IC50", "setting": "[11]", "value": 0.0286, "unit": "µM"}, {"measurement": "IC50", "setting": "[12]", "value": 0.104, "unit": "µM"}, {"measurement": "IC50", "setting": "cells [13]", "value": 0.0025, "unit": "µM"}, {"measurement": "IC50", "setting": "cells [14]", "value": 0.0134, "unit": "µM"}, {"measurement": "IC50", "setting": "cells [15]", "value": 1.66, "unit": "µM"}]}
{"smiles": "Cc1ccc(C(=O)Nc2ccc(CN3CCN(C)CC3)c(C(F)(F)F)c2)cc1C#Cc1ccc(C(N)=O)nc1", "values": [{"measurement": "IC50", "setting": "[11]", "value": 0.0487, "unit": "µM"}, {"measurement": "IC50", "setting": "[12]", "value": 0.321, "unit": "µM"}, {"measurement": "IC50", "setting": "cells [13]", "value": 0.0026, "unit": "µM"}, {"measurement": "IC50", "setting": "cells [14]", "value": 0.018, "unit": "µM"}, {"measurement": "IC50", "setting": "cells [15]", "value": 1.02, "unit": "µM"}]}
{"smiles": "Cc1ccc(C(=O)Nc2ccc(CN3CCN(C)CC3)c(C(F)(F)F)c2)cc1C#Cc1cnc(NC2CC2)nc1", "values": [{"measurement": "IC50", "setting": "[11]", "value": 0.0497, "unit": "µM"}, {"measurement": "IC50", "setting": "[12]", "value": 0.457, "unit": "µM"}, {"measurement": "IC50", "setting": "cells [13]", "value": 0.195, "unit": "µM"}, {"measurement": "IC50", "setting": "cells [14]", "value": 0.519, "unit": "µM"}, {"measurement": "IC50", "setting": "cells [15]", "value": 0.607, "unit": "µM"}]}
{"smiles": "Cc1ccc(C(=O)Nc2ccc(CN3CCN(C)CC3)c(C(F)(F)F)c2)cc1C#Cc1cnc[nH]1", "values": [{"measurement": "IC50", "setting": "[11]", "value": 1, "unit": "µM"}, {"measurement": "IC50", "setting": "[12]", "value": 3.72, "unit": "µM"}, {"measurement": "IC50", "setting": "cells [13]", "value": 0.73, "unit": "µM"}, {"measurement": "IC50", "setting": "cells [14]", "value": 5.74, "unit": "µM"}, {"measurement": "IC50", "setting": "cells [15]", "value": 6.55, "unit": "µM"}]}
{"smiles": "Cc1ccc(C(=O)Nc2ccc(CN3CCN(C)CC3)c(C(F)(F)F)c2)cc1C#Cc1cncn1C", "values": [{"measurement": "IC50", "setting": "[11]", "value": 0.129, "unit": "µM"}, {"measurement": "IC50", "setting": "[12]", "value": 0.55, "unit": "µM"}, {"measurement": "IC50", "setting": "cells [13]", "value": 0.043, "unit": "µM"}, {"measurement": "IC50", "setting": "cells [14]", "value": 0.709, "unit": "µM"}, {"measurement": "IC50", "setting": "cells [15]", "value": 5.65, "unit": "µM"}]}
